# Results from ChEMBL document CHEMBL3272269, “Synthesis and antileukemic activities of furanyl, pyranyl, and ribosyl derivatives of 4-(3,3-dimethyl-1-triazeno)imidazole-5-carboxamide and 3-(3,3-dimethyl-1-triazeno)pyrazole-4-carboxamide” (J Med Chem, 1979).
# Active and inactive are the calls of the source. The rule behind the calls is not given here.
# How the values were obtained:
# [1] = test system: L1210; assay: Antitumor activity against mouse L1210 cells allografted in mouse assessed as survival at 200 mg/kg administered on day 1 followed by 5 injections with 1 day interval; format: functional, organism-based; parameters: dose 200 mg/kg
# [2] = test system: L1210; assay: Antitumor activity against mouse L1210 cells allografted in mouse assessed as increase in survival at 200 mg/kg administered on day 1 followed by 5 injections with 1 day interval relative to control; format: functional
# [3] = test system: Mus musculus; assay: Toxicity in mouse L1210 cells allografted mouse assessed as reduction in body weight at 200 mg/kg administered on day 1 followed by 5 injections with 1 day interval; format: organism-based; parameters: dose 200 mg/kg; settings: in vivo, 24 h
# [4] = test system: L1210; assay: Antitumor activity against mouse L1210 cells allografted in mouse assessed as increase in survival at 100 mg/kg administered on day 1 followed by 5 injections with 1 day interval relative to control; format: functional
# [5] = test system: Mus musculus; assay: Toxicity in mouse L1210 cells allografted mouse assessed as reduction in body weight at 100 mg/kg administered on day 1 followed by 5 injections with 1 day interval; format: organism-based; parameters: dose 100 mg/kg; settings: in vivo, 24 h
# [6] = test system: L1210; assay: Antitumor activity against mouse L1210 cells allografted in mouse assessed as increase in survival at 50 mg/kg administered on day 1 followed by 5 injections with 1 day interval relative to control; format: functional
# [7] = test system: Mus musculus; assay: Toxicity in mouse L1210 cells allografted mouse assessed as reduction in body weight at 50 mg/kg administered on day 1 followed by 5 injections with 1 day interval; format: organism-based; parameters: dose 50 mg/kg; settings: in vivo, 24 h
# [8] = test system: L1210; assay: Antitumor activity against mouse L1210 cells allografted in mouse assessed as survival at 50 mg/kg administered on day 1 followed by 5 injections with 1 day interval; format: functional, organism-based; parameters: dose 50 mg/kg
# [9] = test system: L1210; assay: Antitumor activity against mouse L1210 cells allografted in mouse assessed as survival at 100 mg/kg administered on day 1 followed by 5 injections with 1 day interval; format: functional, organism-based; parameters: dose 100 mg/kg
# [10] = test system: L1210; assay: Antitumor activity against mouse L1210 cells allografted in BDF1 mouse assessed as increase in survival at 120 mg/kg administered on day 1 followed by 5 injections with 1 day interval relative to control; format: functional
# [11] = test system: L1210; assay: Antitumor activity against mouse L1210 cells allografted in BDF1 mouse assessed as increase in survival at 125 mg/kg administered on day 1 followed by 5 injections with 1 day interval relative to control; format: functional
# [12] = test system: L1210; assay: Antitumor activity against mouse L1210 cells allografted in BDF1 mouse assessed as survival at 53 mg/kg administered on day 1 followed by 5 injections with 1 day interval; format: functional, organism-based; parameters: dose 53 mg/kg
# [13] = test system: L1210; assay: Antitumor activity against mouse L1210 cells allografted in BDF1 mouse assessed as increase in survival at 180 mg/kg administered on day 1 followed by 5 injections with 1 day interval relative to control; format: functional
# [14] = test system: L1210; assay: Antitumor activity against mouse L1210 cells allografted in BDF1 mouse assessed as increase in survival at 80 mg/kg administered on day 1 followed by 5 injections with 1 day interval relative to control; format: functional
# [15] = test system: L1210; assay: Antitumor activity against mouse L1210 cells allografted in BDF1 mouse assessed as survival at 125 mg/kg administered on day 1 followed by 5 injections with 1 day interval; format: functional, organism-based; parameters: dose 125 mg/kg
# [16] = test system: Mus musculus; assay: Toxicity in mouse L1210 cells allografted BDF1 mouse assessed as reduction in body weight at 120 mg/kg administered on day 1 followed by 5 injections with 1 day interval; format: organism-based; parameters: dose 120 mg/kg; settings: in vivo, 24 h
# [17] = test system: Mus musculus; assay: Toxicity in mouse L1210 cells allografted BDF1 mouse assessed as reduction in body weight at 180 mg/kg administered on day 1 followed by 5 injections with 1 day interval; format: organism-based; parameters: dose 180 mg/kg; settings: in vivo, 24 h
# [18] = test system: Mus musculus; assay: Toxicity in mouse L1210 cells allografted BDF1 mouse assessed as reduction in body weight at 125 mg/kg administered on day 1 followed by 5 injections with 1 day interval; format: organism-based; parameters: dose 125 mg/kg; settings: in vivo, 24 h
# [19] = test system: Mus musculus; assay: Toxicity in mouse L1210 cells allografted BDF1 mouse assessed as reduction in body weight at 80 mg/kg administered on day 1 followed by 5 injections with 1 day interval; format: organism-based; parameters: dose 80 mg/kg; settings: in vivo, 24 h
# [20] = test system: L1210; assay: Antitumor activity against mouse L1210 cells allografted in BDF1 mouse assessed as survival at 80 mg/kg administered on day 1 followed by 5 injections with 1 day interval; format: functional, organism-based; parameters: dose 80 mg/kg
# [21] = test system: L1210; assay: Antitumor activity against mouse L1210 cells allografted in BDF1 mouse assessed as increase in survival at 53 mg/kg administered on day 1 followed by 5 injections with 1 day interval relative to control; format: functional
# [22] = test system: L1210; assay: Antitumor activity against mouse L1210 cells allografted in BDF1 mouse assessed as survival at 180 mg/kg administered on day 1 followed by 5 injections with 1 day interval; format: functional, organism-based; parameters: dose 180 mg/kg
# [23] = test system: Mus musculus; assay: Toxicity in mouse L1210 cells allografted BDF1 mouse assessed as reduction in body weight at 53 mg/kg administered on day 1 followed by 5 injections with 1 day interval; format: organism-based; parameters: dose 53 mg/kg; settings: in vivo, 24 h
# [24] = test system: Mus musculus; assay: Toxicity in mouse L1210 cells allografted mouse assessed as reduction in body weight at 400 mg/kg administered on day 1 followed by 5 injections with 1 day interval; format: organism-based; parameters: dose 400 mg/kg; settings: in vivo, 24 h
# [25] = test system: L1210; assay: Antitumor activity against mouse L1210 cells allografted in mouse assessed as increase in survival at 400 mg/kg administered on day 1 followed by 5 injections with 1 day interval relative to control; format: functional
# [26] = test system: L1210; assay: Antitumor activity against mouse L1210 cells allografted in mouse assessed as survival at 400 mg/kg administered on day 1 followed by 5 injections with 1 day interval; format: functional, organism-based; parameters: dose 400 mg/kg
# [27] = test system: L1210; assay: Antitumor activity against mouse L1210 cells allografted in mouse assessed as survival at 200 mg/kg administered on day 1 followed by 9 injections with 1 day interval; format: functional, organism-based; parameters: dose 200 mg/kg
# [28] = test system: Mus musculus; assay: Toxicity in mouse L1210 cells allografted BDF1 mouse assessed as reduction in body weight at 100 mg/kg administered on day 1 followed by 3 injections with 4 day interval; format: organism-based; parameters: dose 100 mg/kg; settings: in vivo, 96 h
# [29] = test system: L1210; assay: Antitumor activity against mouse L1210 cells allografted in mouse assessed as survival at 200 mg/kg administered on day 1 followed by 3 injections with 4 day interval; format: functional, organism-based; parameters: dose 200 mg/kg
# [30] = test system: L1210; assay: Antitumor activity against mouse L1210 cells allografted in mouse assessed as increase in survival at 200 mg/kg administered on day 1 followed by 3 injections with 4 day interval relative to control; format: functional
# [31] = test system: Mus musculus; assay: Toxicity in mouse L1210 cells allografted BDF1 mouse assessed as reduction in body weight at 400 mg/kg administered on day 1 followed by 3 injections with 4 day interval; format: organism-based; parameters: dose 400 mg/kg; settings: in vivo, 96 h
# [32] = test system: Mus musculus; assay: Toxicity in mouse L1210 cells allografted BDF1 mouse assessed as reduction in body weight at 200 mg/kg administered on day 1 followed by 9 injections with 1 day interval; format: organism-based; parameters: dose 200 mg/kg; settings: in vivo, 24 h
# [33] = test system: L1210; assay: Antitumor activity against mouse L1210 cells allografted in mouse assessed as increase in survival at 100 mg/kg administered on day 1 followed by 3 injections with 4 day interval relative to control; format: functional
# [34] = test system: L1210; assay: Antitumor activity against mouse L1210 cells allografted in mouse assessed as survival at 100 mg/kg administered on day 1 followed by 3 injections with 4 day interval; format: functional, organism-based; parameters: dose 100 mg/kg
# [35] = test system: L1210; assay: Antitumor activity against mouse L1210 cells allografted in mouse assessed as increase in survival at 200 mg/kg administered on day 1 followed by 9 injections with 1 day interval relative to control; format: functional
# [36] = test system: Mus musculus; assay: Toxicity in mouse L1210 cells allografted BDF1 mouse assessed as reduction in body weight at 200 mg/kg administered on day 1 followed by 3 injections with 4 day interval; format: organism-based; parameters: dose 200 mg/kg; settings: in vivo, 96 h
# [37] = test system: L1210; assay: Antitumor activity against mouse L1210 cells allografted in mouse assessed as survival at 400 mg/kg administered on day 1 followed by 3 injections with 4 day interval; format: functional, organism-based; parameters: dose 400 mg/kg
# [38] = test system: L1210; assay: Antitumor activity against mouse L1210 cells allografted in mouse assessed as increase in survival at 400 mg/kg administered on day 1 followed by 3 injections with 4 day interval relative to control; format: functional
compound,measurement,setting,value
CC(=O)OC[C@H]1O[C@@H](n2ncc(C(N)=O)c2/N=N/N(C)C)[C@H](OC(C)=O)[C@@H]1OC(C)=O,Activity,[1],Active
same,T/C,[2],122%
same,Activity,[3],2.3 g
CN(C)/N=N/c1nn(C2CCCO2)cc1C(N)=O (configuration not stated),Activity,[1],Active
same,T/C,[2],134%
same,T/C,[4],141%
same,Activity,[3],3.7 g
same,Activity,[5],2.3 g
same,T/C,[6],129%
same,Activity,[7],1.8 g
same,Activity,[8],Active
same,Activity,[9],Active
CN(C)/N=N/c1[nH]cnc1C(N)=O [DACARBAZINE],T/C,[10],157%
same,T/C,[11],147%
same,Activity,[12],Active
same,T/C,[13],142%
same,T/C,[14],147%
same,Activity,[15],Active
same,Activity,[16],2.2 g
same,Activity,[17],2.6 g
same,Activity,[18],2.1 g
same,Activity,[19],2 g
same,Activity,[20],Active
same,T/C,[21],126%
same,Activity,[22],Active
same,Activity,[23],0.8 g
CC(=O)OC[C@H]1O[C@@H](n2cnc(/N=N/N(C)C)c2C(N)=O)[C@H](OC(C)=O)[C@@H]1OC(C)=O,Activity,[1],Active
same,T/C,[2],124%
same,T/C,[4],123%
same,Activity,[24],2.2 g
same,T/C,[25],157%
same,Activity,[3],1.6 g
same,Activity,[5],1.5 g
same,Activity,[26],Active
same,Activity,[9],Active
CC(=O)OC[C@H]1O[C@@H](n2cc(C(N)=O)c(/N=N/N(C)C)n2)[C@H](OC(C)=O)[C@@H]1OC(C)=O,Activity,[27],Active
same,Activity,[28],0.1 g
same,Activity,[29],Active
same,T/C,[30],105%
same,Activity,[31],1.1 g
same,Activity,[32],2.8 g
same,T/C,[33],100%
same,Activity,[34],Active
same,T/C,[35],107%
same,Activity,[36],1.8 g
same,Activity,[37],Active
same,T/C,[38],89%
